Literature values as cited in article PMC10055906 (Chemical Science, 2023).
pKd: −log10 of the molar value.

Biological target: FGF2 (Homo sapiens, UniProt P09038)
Settings: read-out: KD (FGF2 affinity)

Chain of FGF2 (P09038 134-288): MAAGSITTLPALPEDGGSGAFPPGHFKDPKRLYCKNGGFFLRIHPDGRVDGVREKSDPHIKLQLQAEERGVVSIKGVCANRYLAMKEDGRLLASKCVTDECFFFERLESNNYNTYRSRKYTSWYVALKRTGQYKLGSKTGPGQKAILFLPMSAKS

- pKd: 5.92
Substance: IdoA-GlcNS(6S)-IdoA(2S)-GlcNS(6S)
